Holding throughout (assay type): cell-based
The subject of assay [1] is differentiated mouse myoblasts. The assay can be described thus: Glucose uptake study: intracellular glucose colorimetric assay in insulin-treated differentiated mouse myoblasts. The text has this: (§1) In vitro efficacy study: evaluation of the modulation of the carbohydrate metabolism by two compositions comprising a chromium salt (Composition 1 and Composition 2) in a culture of differentiated mouse myoblasts.
(§2) The following endpoints were considered:—glucose uptake, by means of intracellular glucose assay; • expression of GLUT-4, insulin-sensitive glucose transporter; and • ATP content, the primary source of energy for cellular biochemical reactions.
(§3) The experimental model used in this study is differentiated mouse myoblasts (ATCC Number: CRL-1772, lot 70013341), cultured in Dulbecco's Modified Eagle's Medium (DMEM) supplemented with 10% foetal bovine serum at 37° C., 5% CO2. The formation of myotubes is induced by adding horse serum.
(§4) The experimental protocol provided for: • Untreated control cells (CTR-); • Insulin-treated control cells (100 nM); • Insulin-treated cells and the Compounds in question (Composition 1 and Composition 2); • Insulin-treated cells and the reference Compound (metformin).
(§5) Three concentrations of each composition under study (Composition 1 and 2) were tested: 500 μM, 100 µM and 50 μM (Cr). The preparation of the samples involved the use of DMSO as solvent.
(§6) The reference Compound (metformin hydrochloride) was tested at 2000 μm. • The treatment of the cells with Composition 1 and 2 and reference Composition extended for 24 hours.
(§7) The cultures were then treated with insulin (100 nM) for 4 hours. A source of glucose was added to the media in the glucose uptake evaluation study. The treatments were conducted in quadruplicate.
(§8) At the end of the treatments the cells were lysed to obtain a cell homogenate on which it was assayed: • glucose, by means of colorimetric assay; • ATP, by means of colorimetric assay; • GLUT-4, by means of ELISA technique.
(§9) Commercially available colorimetric and ELISA kits were used.
(§10) The colorimetric kits use a specific probe, a mixture of reaction enzymes and a curve with known amounts of each standard.
(§11) The data obtained in the experimental groups treated with the samples subject of the study were subjected to statistical analysis and compared with each other and with insulin according to the t-test. Variations are considered significant for p<0.05.
Glucose assay: the results (Table 2 and FIG. 1) are expressed as mean content±st.dev. (expressed in nanomoles) and as a mean % variation with respect to treatment with insulin. Statistically significant data with respect to insulin are reported with *, while ^∘ indicates differences between tested compounds.

Assay [2] concerns differentiated mouse myoblasts. The assay is described as follows: ATP study: colorimetric assay of ATP content in insulin-treated differentiated mouse myoblasts.
Description: as §1, §2, §3, §4, §5, §6, §7, §8, §9, §10, §11
ATP assay: the results (Table 4 and FIG. 3) are expressed as mean content±st.dev. (expressed in nanomoles) and as a mean % variation with respect to treatment with insulin. Statistically significant data with respect to insulin are reported with *, while ^∘ indicates differences between tested compounds.

A further assay deals with GLUT-4. The assay is described as follows: GLUT-4 study: ELISA of GLUT-4 in cell homogenate of insulin-treated differentiated mouse myoblasts.
Description: as §1, §2, §3, §4, §5, §6, §7, §8, §9
ELISA kits exploit the competitive binding of an antigen (in this case GLUT-4) with its primary antibody. The immune complex (antigen-antibody) is in turn recognised by a secondary antibody conjugated to a peroxidase. The addition of the peroxidase substrate produces a colorimetric reaction with intensity proportional to the amount of immune complexes present and thus to the amount of bound target molecule. Quantitative determination exploits a calibration curve constructed with known and increasing concentrations of standard marker.
as §11
GLUT-4 assay: the results (Table 3 and FIG. 2) are expressed as mean content±st.dev. (expressed in μg/L) and as a mean % variation with respect to treatment with insulin. Statistically significant data with respect to insulin are reported with *, while ^∘ indicates differences between tested compounds.
A general note: ELISA stands for enzyme-linked immunosorbent assay.

[3] abbreviates: 2000 um for 24 hours + insulin 100 nM for 4 hours.
Where [4] appears, read: insulin 100 nM for 4 hours, insulin-treated control cells.
Where [5] appears, read: 50 μM (Cr) for 24 hours + insulin 100 nM for 4 hours.
The mark [6] stands for this setting: 100 μM (Cr) for 24 hours + insulin 100 nM for 4 hours.
Where [7] appears, read: 500 μM (Cr) for 24 hours + insulin 100 nM for 4 hours.
[8] abbreviates: at 500 µM and 100 µM, significance vs. insulin p<0.05.

Here are results for three compounds from patent publication US20250275982A1, “SOLID FORM FORMULATION COMPRISING CHROMIUM OR COPPER OR A VITAMIN, COMPOSITIONS AND USES THEREOF” (ALESCO S.R.L., priority 2019, published 2025).

Counter-ions that a name gives are not always drawn.

For `CN(C)C(=N)N=C(N)N` [Metformin, metformin hydrochloride], the “% var. vs. insulin (glucose assay)” value in assay [1] (2000 um + insulin) amounted to 24.6%. The “mean value (glucose assay, mean content)” value in assay [1] (setting [3]) amounted to 11.73 nmol. The “% var. vs. insulin (ATP assay)” value in assay [2] (2000 um + insulin) is given as 17.6%. In assay [2] (setting [3]), the “mean value (ATP assay, mean content)” value amounted to 4.61 nmol. Further, in the assay with GLUT-4 (2000 um + insulin), the “% var. vs. insulin (GLUT-4 assay)” value was 28.0%. For the same compound, the “mean value (GLUT-4 assay, mean content)” value with GLUT-4 (setting [3]) was 6.71 µg/L.
Take “Insulin: insulin (100 nM) used to treat control cells and all treated cultures”: the “mean value (glucose assay, mean content)” value in assay [1] (setting [4]) was 9.42 nmol. Moreover, in assay [2] (setting [4]), the “mean value (ATP assay, mean content)” value came out at 3.92 nmol. For the same compound, the “mean value (GLUT-4 assay, mean content)” value in the assay with GLUT-4 (setting [4]) came out at 5.24 µg/L.
For “chromium (III) picolinate [CR picolinate]”, the “mean value (glucose assay, mean content)” value turned out to be 10.24 nmol in assay [1] (setting [5]), 11.08 nmol in assay [1] (setting [6]) and 11.24 nmol in assay [1] (setting [7]). The “% var. vs. insulin (glucose assay)” value was 8.7% in assay [1] (50 μM + insulin), 17.6% in assay [1] (100 μM + insulin) and 19.3% in assay [1] (500 μM + insulin). Further, in assay [1] (500, 100 and 50 μM), the “glucose uptake, behaviour over the three concentrations, in words” value was “showed a dose-dependent behaviour”. For the same compound, the “insulin-dependent glucose uptake, result in words” value in assay [1] (setting [8]) is “effective in significantly increasing insulin-dependent glucose uptake”. Besides, the results for the “mean value (ATP assay, mean content)” value in assay [2] (setting [5]), in assay [2] (setting [6]) and in assay [2] (setting [7]) were 4.09 nmol, 4.78 nmol and 5.35 nmol, respectively. For the same compound, the figures for the “% var. vs. insulin (ATP assay)” value in assay [2] (50 μM + insulin), in assay [2] (100 μM + insulin) and in assay [2] (500 μM + insulin) were 4.3%, 22.1% and 36.5%, respectively. Moreover, the “intracellular ATP, behaviour over the three concentrations, in words” value in assay [2] (500, 100 and 50 μM) is listed as “showed a dose-dependent behaviour”. Besides, in assay [2] (at 50 μM), the “intracellular ATP, statistical comparison between the compositions, in words” value was “does not show performance differences”. In addition, the “levels of intracellular ATP, result in words” value in assay [2] (setting [8]) was “effective in significantly increasing the levels of intracellular ATP”. Besides, the “mean value (GLUT-4 assay, mean content)” value is 5.60 µg/L in the assay on GLUT-4 (setting [5]), 6.35 µg/L in the assay on GLUT-4 (setting [6]) and 6.50 µg/L with GLUT-4 (setting [7]). Also, the entries for the “% var. vs. insulin (GLUT-4 assay)” value with GLUT-4 (50 μM + insulin), with GLUT-4 (100 μM + insulin) and in the assay with GLUT-4 (500 μM + insulin) were 6.8%, 21.1% and 24.0%, respectively. For the same compound, the “GLUT-4 levels, behaviour over the three concentrations, in words” value in the assay on GLUT-4 (500, 100 and 50 μM) was “showed a dose-dependent behaviour”. In the assay with GLUT-4 (setting [8]), the “levels of GLUT-4 carrier, result in words” value is on record as “effective in significantly increasing the levels of GLUT-4 carrier”.
